{"source": "patent US20220096862A1", "about": "“METHOD FOR IRRADIATING CELLS WITH LIGHT, METHOD FOR CONTROLLING MEDICAL DEVICE, AND MEDICAL DEVICE” (OLYMPUS CORPORATION, priority 2019, published 2022)", "key": {"A431 tumor bearing mice [1]": {"system": "A431 tumor bearing mice", "assay": "Percentage of attenuation of fluorescence versus cellular cytotoxicity after therapeutic light irradiation (PIT), FIG. 4", "type": "in vivo", "procedure": "The total amount of irradiation is the same in both the case where irradiation is performed with the therapeutic light L with the light intensity of 50 mW/cm^2 or less and the case where irradiation is performed with the therapeutic light L with the light intensity of 100 mW/cm^2 or more. In other words, in the case where irradiation is performed with the therapeutic light L with the light intensity of 50 mW/cm^2 or less, a time period during which the cells C are irradiated is longer than a time period during which the cells C are irradiated with the therapeutic light L with the light intensity of 100 mW/cm^2 or more.\nAfter the cells C are irradiated with the therapeutic light L, if the rate of reduction of fluorescence (the percentage of attenuation of fluorescence) and cellular cytotoxicity have a proportional relation, as shown by a dashed-and-dotted line A in FIG. 4, when the rate of reduction of fluorescence is 100%, cellular cytotoxicity is 100%. Therefore, it should be determined that all cells C disappear if fluorescence is no longer detected.\nHow ever, as the result of experiments performed by the applicant, the following is found. In actual experiments, as the result of observation that is performed after irradiation, by using the endoscope 1, for example, as the rate of reduction of fluorescence approaches 70% (or little more than 70%), cellular cytotoxicity approaches 100%."}, "A431 tumor bearing mice [2]": {"system": "A431 tumor bearing mice", "assay": "Rates of damage of tumor tissues from pathological images after irradiation at different light intensities (PIT), FIG. 5", "type": "in vivo", "settings": "300 μg/mouse, irradiated one day after administration, total amount 100 J/cm^2, 25 mW/cm^2 or 50 mW/cm^2 compared with 100 mW/cm^2 or 300 mW/cm^2, tumors excised after one more day", "procedure": "Pan-IR700, which is the photosensitizing agent 20, is administered to the A431 tumor bearing mice at 300 μg/mouse. One day after the administration of Pan-IR700, the cells C are irradiated with light of respective irradiation intensities shown in FIG. 5 up to the same total amount (100 J/cm^2). After one more day, tumor tissues are excised, and rates of damage of the tissues are calculated from pathological images of cross sections of the tumors."}}, "data": [{"substance": "Pan-IR700: phthalocyanine fluorescent dye (IRDye 700) attached to one antibody molecule (panitumumab, monoclonal antibody to Human EGFR)", "values": [{"measurement": "cellular cytotoxicity", "setting": "A431 tumor bearing mice [1]; as the rate of reduction of fluorescence approaches 70% (or little more than 70%), after irradiation with therapeutic light L, FIG. 4", "result": "~100", "unit": "%"}, {"measurement": "relationship of reduction of fluorescence and cellular cytotoxicity", "setting": "A431 tumor bearing mice [1]; therapeutic light L with light intensity of 50 mW/cm^2 or less (solid line B, FIG. 4)", "result": "linear relationship"}, {"measurement": "rate of cellular cytotoxicity", "setting": "A431 tumor bearing mice [1]; therapeutic light L with light intensity of 100 mW/cm^2 or more (solid line D, FIG. 4), reduction of fluorescence also found", "result": "low"}, {"measurement": "cellular cytotoxicity (rates of damage of the tissues)", "setting": "A431 tumor bearing mice [2]", "result": "greater"}]}]}
